Source: PMC6010140, “Design, synthesis and docking study of novel coumarin ligands as potential selective acetylcholinesterase inhibitors” (Journal of Enzyme Inhibition and Medicinal Chemistry, 2017)
Entries after “also recorded” stand apart in the source; their conditions may differ. Like-named read-outs stand apart in the source and are kept apart here.

Tests used:
AChE [1] = target: AChE (Electrophorus electricus, UniProt O42275); conditions: Lineweaver-Burk plot
Description: The plots were assessed by a weighted least-squares analysis that assumed the variance of velocity (v) to be a constant percentage of v for the entire data set.

BuChE = conditions: cited from earlier work
AChE [2] = conditions: cited from earlier work

AChE (Electrophorus electricus, UniProt O42275), sequence (O42275 24-633): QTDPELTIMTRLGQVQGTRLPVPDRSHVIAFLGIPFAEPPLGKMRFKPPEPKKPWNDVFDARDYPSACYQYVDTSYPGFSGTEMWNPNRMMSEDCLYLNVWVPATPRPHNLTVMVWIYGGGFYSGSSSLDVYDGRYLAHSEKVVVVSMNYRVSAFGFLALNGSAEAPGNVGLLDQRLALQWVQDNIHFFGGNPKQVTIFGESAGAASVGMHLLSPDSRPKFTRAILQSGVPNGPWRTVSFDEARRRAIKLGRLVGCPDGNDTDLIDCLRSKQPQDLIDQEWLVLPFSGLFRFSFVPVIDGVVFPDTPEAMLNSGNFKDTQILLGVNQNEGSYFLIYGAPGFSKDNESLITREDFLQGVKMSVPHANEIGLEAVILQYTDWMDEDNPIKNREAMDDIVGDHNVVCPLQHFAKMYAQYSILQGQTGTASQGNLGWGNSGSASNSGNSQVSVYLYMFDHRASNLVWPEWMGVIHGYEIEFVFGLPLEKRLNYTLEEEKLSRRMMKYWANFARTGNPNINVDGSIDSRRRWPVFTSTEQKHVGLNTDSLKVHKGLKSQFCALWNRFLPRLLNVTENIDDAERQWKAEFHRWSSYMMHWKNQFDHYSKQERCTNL

Structure (SMILES) | IC50 (BuChE) [µM] | IC50 (AChE [2]; authors' previous work) [µM] | further results
CCN(CC)CC(=O)Nc1nc(-c2cc3ccccc3oc2=O)cs1 [Compound 6c, 2-(Diethylamino)-N-(4-(2-oxo-2H-chromen-3-yl)thiazol-2-yl)acetamide] | – | – | type of AChE inhibition (AChE [1]): mixed-type inhibitor; also recorded: mixed-type inhibition
COc1cccc2cc(-c3csc(NC(=S)Nc4ccc(Cl)cc4)n3)c(=O)oc12 [PBI-2] | – | 4.58 | –
O=C(Nc1nc(-c2cc3cc(Br)ccc3o2)cs1)Nc1ccccc1F [PBI-1] | – | 3.85 | –
